Test [1] relates to rat aorta. Put plainly: Endothelial-dependent relaxation of rat aorta after cytokine (IL1β / cytomix) injury. The test is classed as cell-based. Conditions: 2 hrs; for endothelial function (percent relaxation to carbachol) after IL1β injury: IL1β 50 ng/ml, peptide 100 μM; for endothelial function (percent relaxation to carbachol) after cytokine injury: IL1β alone 50 ng/ml or cytomix (IL1β, TNFa, IFNg), peptide 500 μM. The procedure: Freshly isolated rat aorta (RA) was cut into rings and suspended in the muscle bath. Tissues were then treated with either IL1β alone (50 ng/ml) or cytomix (IL1β 50 ng/ml, TNFa, 10 ng/ml, IFNg 50 ng/ml) in the absence or presence of NiPp (500 μM) for 2 hrs, contracted with PE, and then treated with escalating doses of carbachol (CCH; 10^−8 to 10^−5M). The percent relaxation was determined as a change to the maximal PE-induced contraction. n=5-7 rats. *p<0.05 in two-way ANOVA with Tukey post-test. NiPp restores cytokines-induced endothelial dysfunction in RA.
Freshly isolated rat aorta (RA) was cut into rings and suspended in the muscle bath. Tissues were then treated with the cytokine IL1β (50 ng/ml) in the absence or presence of NiPp, NiPp3, or scr3NiPp (100 μM) for 2 hrs, contracted with PE, and then treated with escalating doses of carbachol (CCH; 10^−8 to 10^−5 M). The percent relaxation was determined as a change to the maximal PE-induced contraction. n=5-7 rats. *p<0.05 in two-way ANOVA with Tukey post-tests. There were significant differences between IL1β-treated vs ctrl or NiPp-treated RA.
Freshly isolated rat aorta (RA) was cut into rings and suspended in the muscle bath. Tissues were then treated with either IL1β alone (50 ng/ml) or cytomix (IL1β 50 ng/ml, TNFa, 10 ng/ml, IFNg 50 ng/ml) in the absence or presence of NiPp (500 μM) for 2 hrs, contracted with PE, and then treated with escalating doses of carbachol (CCH; 10−8 to 10−5 M).
Freshly isolated rat aorta (RA) was cut into rings and suspended in the muscle bath. Tissues were then treated with the cytokine IL1β (50 ng/ml) in the absence or presence of NiPp, NiPp3, or scr3NiPp (100 μM) for 2 hrs, contracted with PE, and then treated with escalating doses of carbachol (CCH; 10^−8 to 10^−5 M). NiPp3 (SEQ ID NO:77) is a control polypeptide containing non-phosphorylated sequence of X2 of NiPp. scr3NiPp3 (SEQ ID NO:79) is a control polypeptide containing scrambled sequence of X2 of NiPp.

Test [2] has as its target p38 MAPKα (MAPK14) (Homo sapiens, UniProt Q16539). Put plainly: SelectScreen kinase profiling. The test is classed as biochemical. Conditions: peptide 100 μM, single concentration. The method, then: FIGS. 14A and 14B show kinase profiling of polypeptides. NiPp, scr3NiPp, and NiPp3 were profiled against 490 kinases at 100 uM using the SelectScreen Kinase Profiling Service (www.thermofisher.com). […] NiPp inhibits MSK1 and p38MAPK alpha by >60%. These two kinases are central to the p38MAPK kinase signaling cascade that play important roles in stress and inflammatory responses. NiPp-specific inhibitory activity to p38 MAPK were not detected for NiPp3 (non-phosphorylated) or scr3NiPp (scrambled) polypeptides.
Kinase profiling. NiPp was dissolved in DMSO, screened at a single concentration of 100 μM using in vitro kinase assays (SelectScreen Kinase Profiling Service; ThermoFisher Scientific, Madison WI) including the Z'LYTE and Adapta kinase activity assays and the LanthaScreen Eu Kinase Binding Assay). Candidate interactions were predicted using STRING Version 11 (www.string-db-org) with the human database at confidence=0.7.
As injury leads to increased p38 MAPK phosphorylation and decreased Niban phosphorylation, one of the mechanisms by which NiPp restores function after endothelial injury can be kinase inhibition. A kinase profiling was performed using three different profiling platforms that measure activity and kinase/substrate binding. […]

The subject of test [3] is rat aorta. Put plainly: Endothelial-dependent relaxation of rat aorta after endoplasmic reticulum stress (tunicamycin) injury. The test is classed as cell-based. The following applies: NiPp 100 and 500 μM, 2 hours, room temperature. The procedure: Freshly isolated rat aorta was treated with tunicamycin (TM) to induce injury in the absence or presence of NiPp (100 and 500 μM) for 2 hours at room temperature. To determine the effect of injury on endothelial function, phenylephrine (PE)-precontracted tissues were treated with carbachol (CCH; 10^−8 to 10^−5M) and the percent relaxation was determined as a change to the maximal PE-induced contraction. Data are reported as mean responses±standard deviation. n=6. *p<0.05, two-way ANOVA.
Muscle bath studies. Tissue rings were suspended in bicarbonate buffer in the muscle bath at 37° C., equilibrated with 95% O2/5% CO2 at 37° C. for 1 hour. Rings were manually stretched to 3 grams of tension, followed by a resting tension of 1 gram for an additional 1 hour to produce a maximal force-tension relationship. […] Relaxation was calculated as percent change in stress compared to the maximal PE-induced contraction (set as 100%).
Freshly isolated rat aorta was treated with tunicamycin (TM) to induce injury in the absence or presence of NiPp (100 and 500 μM) for 2 hours at room temperature. To determine the effect of injury on endothelial function, phenylephrine (PE)-precontracted tissues were treated with carbachol (CCH; 10^−8 to 10^−5M) and the percent relaxation was determined as a change to the maximal PE-induced contraction. […]

“Also recorded” adds a separate entry of the source. Non-standard residues stand in square brackets, D forms with d. No end group written: not given here. pS = N[C@@H](COP(=O)(O)O)C(=O)O

Chain of p38 MAPKα (MAPK14) (Q16539 whole entry): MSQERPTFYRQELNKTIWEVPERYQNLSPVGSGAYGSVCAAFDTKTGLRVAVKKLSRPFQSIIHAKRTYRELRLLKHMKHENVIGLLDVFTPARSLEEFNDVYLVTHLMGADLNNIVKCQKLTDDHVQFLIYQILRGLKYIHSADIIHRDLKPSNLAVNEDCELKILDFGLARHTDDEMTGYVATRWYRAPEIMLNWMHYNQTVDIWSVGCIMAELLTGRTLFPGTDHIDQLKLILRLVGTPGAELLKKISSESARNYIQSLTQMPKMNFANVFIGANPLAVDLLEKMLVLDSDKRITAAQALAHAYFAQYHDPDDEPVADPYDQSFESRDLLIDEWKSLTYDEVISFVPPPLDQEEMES

For the substance “YARAAARQARAAGSPPLA(pS)AIARR (YARAAARQARAAGSPPLA[pS]AIARR) [scr3NiPp]”, the “endothelial function (percent relaxation to carbachol) after IL1β injury” value is “did not restore” in test [1] and “failed to restore” in test [1] (listed as scr3NiPp3). Besides, the “% inhibition of p38 MAPKα” value in test [2] is on record as “not detected”.
Regarding “YARAAARQARASPAARRASAILPG (not fully specified (residue 19)) [NiPp3]”, the “endothelial function (percent relaxation to carbachol) after cytokine injury” value in test [1] is listed as “significant improvement”. In addition, in test [2], the “% inhibition of p38 MAPKα” value was “not detected”.
Consider “YARAAARQARASPAARRA(pS)AILPG (YARAAARQARASPAARRA[pS]AILPG) [NiPp, Cell-permeant phosphopeptide mimetic of Niban: transduction domain … conjugated to the region surrounding serine 602 of Niban]”, for which, in test [3], the “endothelial function (percent relaxation to carbachol) after tunicamycin injury” value was “restored”. In test [1], the “endothelial function (percent relaxation to carbachol) after IL1β injury” value is recorded as “restores” and the “endothelial function (percent relaxation to carbachol) after cytokine injury” value was “improved; also recorded: restores”.

Values taken from US12583895B2, “Polypeptides for restoring endothelial function and methods of use thereof” (Vanderbilt University, priority 2019, dated 2026).
